Tested on: ATXN3-HiBiT protein
Experiment: ATXN3 Total Protein Assay (Kelly-ATXN3-HiBiT luminescence)
Type: cell-based
Settings: Kelly-ATXN3-HiBiT cells, 48 h after addition of compound
Excerpt: Example 36: ATXN3 Total Protein Assay
To monitor ATXN3 protein levels by luminescence, a Kelly-ATXN3-HiBiT cell line with homozygous knock-in of HiBiT at the C-terminus of the endogenous ATXN3 gene was used (knock-in of the HiBiT-tag coding sequence SEQ ID NO. 14: 5′[…]3′ into exon 11 of ATXN3-position 1114 of ATXN3 RefSeq NM_004993.6). Manipulations of the Kelly-ATXN3-HiBiT cell line that result in downregulation of the ATXN3-HiBiT protein (through modulation of ATXN3-HiBiT pre-mRNA splicing) can be followed by monitoring the luminescence signal of the HiBiT tag using the Nano Glo HiBiT Lytic Detection System (Promega, #N3050). Kelly-ATXN3-HiBiT cells were maintained in RPMI 1640 w/Glutamax (Gibco, #61870010), 10% FBS (Sigma Aldrich, #F8687), 1% Penicillin/Streptomycin (Gibco, #15140-122) at 37° C., 5% CO2. To assess HiBiT-luminescence signal upon compound treatment, 2000 Kelly-ATXN3-HiBiT cells were seeded per well in 384 plate format. Compounds were added 24 h after seeding. ATXN3-HiBiT-luminescence signal was read out 48 h after addition of the compound using the Nano Glo HiBiT Lytic Detection System (Promega, #N3050) according to the manufacturer's instructions. To control for cell viability, an identically prepared sister plate was read out with the CellTiter-Glo® 2.0 Assay (Promega, #G9243) according to the manufacturer's instructions. Fold changes of ATXN3-HiBiT-luminescence and of CellTiter-Glo viability signals were calculated relative to a DMSO control condition.

| Structure (SMILES) | EC50 [nM] |
| --- | --- |
| Cc1c(CC(N)CC2(F)CC2)oc2c(NCc3cccs3)cc(Cl)nc12 (centres unmarked) [Compound 67, 2-[2-amino-3-(1-fluorocyclopropyl)propyl]-5-chloro-3-methyl-7-thenylamino-1-oxa-4-azaindene] | 101 to 500 |
| Cc1c(C[C@@H](N)CC2(F)CC2)oc2c(NCc3cccs3)cc(Cl)nc12 [Compound 68, 2-[(R)-2-amino-3-(1-fluorocyclopropyl)propyl]-5-chloro-3-methyl-7-thenylamino-1-oxa-4-azaindene] | 501 to 5000 |
| Cc1c(C[C@H](N)CC2(F)CC2)oc2c(NCc3cccs3)cc(Cl)nc12 [Compound 69, 2-[(S)-2-amino-3-(1-fluorocyclopropyl)propyl]-5-chloro-3-methyl-7-thenylamino-1-oxa-4-azaindene] | 0.01 to 100 |
| Cc1c(CC(N)CC2COC2)oc2c(NCc3cccs3)cc(Cl)nc12 (centres unmarked) [Compound 70, 2-[2-amino-3-(3-oxetanyl)propyl]-5-chloro-3-methyl-7-thenylamino-1-oxa-4-azaindene] | 10000 to 40000 |
| Cc1c(CC(N)CC2(F)COC2)oc2c(NCc3cccs3)cc(Cl)nc12 (centres unmarked) [Compound 73, 2-[2-amino-3-(3-fluoro-3-oxetanyl)propyl]-5-chloro-3-methyl-7-thenylamino-1-oxa-4-azaindene] | 10000 to 40000 |
| N[C@@H](Cc1oc2c(NCc3cccs3)cc(Cl)nc2c1Br)CC1(F)CC1 [Compound 86, 2-[(S)-2-amino-3-(1-fluorocyclopropyl)propyl]-3-bromo-5-chloro-7-thenylamino-1-oxa-4-azaindene] | 501 to 5000 |
| N[C@H](Cc1oc2c(NCc3cccs3)cc(Cl)nc2c1Br)CC1(F)CC1 [Compound 87, 2-[(R)-2-amino-3-(1-fluorocyclopropyl)propyl]-3-bromo-5-chloro-7-thenylamino-1-oxa-4-azaindene] | 101 to 500 |
| COC1([C@H](N)Cc2oc3c(NCc4cccs4)cc(Cl)nc3c2Br)CC1 [Compound 144, 2-[(R)-2-amino-2-(1-methoxycyclopropyl)ethyl]-3-bromo-5-chloro-7-thenylamino-1-oxa-4-azaindene] | 10000 to 40000 |
| N[C@@H](CCOC(F)(F)F)Cc1oc2c(NCc3cccs3)cc(Cl)nc2c1Br [Compound 146, 2-[(S)-2-amino-4-trifluoromethoxybutyl]-3-bromo-5-chloro-7-thenylamino-1-oxa-4-azaindene] | 0.01 to 100 |
| COCC[C@H](N)Cc1oc2c(NCc3cccs3)cc(Cl)nc2c1Br [Compound 147, 2-[(S)-2-amino-4-methoxybutyl]-3-bromo-5-chloro-7-thenylamino-1-oxa-4-azaindene] | 0.01 to 100 |
| N#CC[C@H](N)Cc1oc2c(NCc3cccs3)cc(Cl)nc2c1Br [Compound 155, (S)-3-amino-4-(3-bromo-5-chloro-7-thenylamino-1-oxa-4-aza-2-indenyl)butyronitrile] | 501 to 5000 |
| N[C@@H](COCC(F)F)Cc1oc2c(NCc3cccs3)cc(Cl)nc2c1Br [Compound 182, 2-[(R)-2-amino-3-(2,2-difluoroethoxy)propyl]-3-bromo-5-chloro-7-thenylamino-1-oxa-4-azaindene] | 0.01 to 100 |
| N[C@H](Cc1oc2c(NCc3cccs3)cc(Cl)nc2c1Br)C[C@@H]1CC1(F)F [Compound 183, 2-{(S)-3-[(R)-2,2-difluorocyclopropyl]-2-aminopropyl}-3-bromo-5-chloro-7-thenylamino-1-oxa-4-azaindene] | 101 to 500 |
| N[C@H](Cc1oc2c(NCc3cccs3)cc(Cl)nc2c1Br)C[C@H]1CC1(F)F [Compound 184, 2-{(S)-3-[(S)-2,2-difluorocyclopropyl]-2-aminopropyl}-3-bromo-5-chloro-7-thenylamino-1-oxa-4-azaindene] | 101 to 500 |
| CC(=O)NC[C@H](N)Cc1oc2c(NCc3cccs3)cc(Cl)nc2c1Br [Compound 219] | 0.01 to 100 |
| C[C@H](N)C(F)(F)c1oc2c(NCc3nccs3)cc(Cl)nc2c1Br [Compound 223, 2-[(S)-2-amino-1,1-difluoropropyl]-3-bromo-5-chloro-7-{[(1,3-thiazol-2-yl)methyl]amino}-1-oxa-4-azaindene] | 101 to 500 |
| N[C@@H](CO)C(F)(F)c1oc2c(NCc3nccs3)cc(Cl)nc2c1Br [Compound 224, (S)-2-amino-3-(3-bromo-5-chloro-7-{[(1,3-thiazol-2-yl)methyl]amino}-1-oxa-4-aza-2-indenyl)-3,3-difluoro-1-propanol] | 501 to 5000 |
| [2H][C@@](C)(N)Cc1oc2c(NCc3cccs3)cc(Cl)nc2c1Br [Compound 229, 2-[(S)-2-amino(2-2H)propyl]-3-bromo-5-chloro-7-thenylamino-1-oxa-4-azaindene] | 0.01 to 100 |

| Structure (SMILES) | EC50 [nM] |
| --- | --- |
| [2H]C([2H])([2H])C(N)Cc1oc2c(NCc3cccs3)cc(Cl)nc2c1Br (centres unmarked) [Compound 230, 2-[2-amino(3,3,3-^2H3)propyl]-3-bromo-5-chloro-7-thenylamino-1-oxa-4-azaindene] | 0.01 to 100 |
| [2H]C([2H])([2H])[C@H](N)Cc1oc2c(NCc3cccs3)cc(Cl)nc2c1Br [Compound 231, 2-[(S)-2-amino(3,3,3-2H3)propyl]-3-bromo-5-chloro-7-thenylamino-1-oxa-4-azaindene] | 0.01 to 100 |
| [2H]C([2H])([2H])[C@@H](N)Cc1oc2c(NCc3cccs3)cc(Cl)nc2c1Br [Compound 232, 2-[(R)-2-amino(3,3,3-^2H3)propyl]-3-bromo-5-chloro-7-thenylamino-1-oxa-4-azaindene] | 101 to 500 |
| [2H]C([2H])([2H])OC[C@H](N)Cc1oc2c(NCc3cccs3)cc(Cl)nc2c1C#C [Compound 233, 2-[(R)-2-amino-3-(2H3)methoxypropyl]-5-chloro-3-ethynyl-7-thenylamino-1-oxa-4-azaindene] | 0.01 to 100 |
| [2H]C([2H])(Nc1cc(Cl)nc2c(Br)c(C[C@]([2H])(C)N)oc12)c1cccs1 [Compound 234, 2-[(S)-2-amino(2-2H)propyl]-3-bromo-5-chloro-7-{[(2-thienyl)(^2H2)methyl]amino}-1-oxa-4-azaindene] | 0.01 to 100 |
| N#CC[C@H](N)Cc1oc2c(NCc3ccco3)cc(Cl)nc2c1Br [Compound 235, (S)-3-amino-4-[3-bromo-5-chloro-7-(furfurylamino)-1-oxa-4-aza-2-indenyl]butyronitrile] | 501 to 5000 |
| C#Cc1c(C[C@@H](N)COC2CC2)oc2c(NCc3cccs3)cc(Cl)nc12 [Compound 244, 2-[(R)-2-amino-3-cyclopropoxypropyl]-5-chloro-3-ethynyl-7-thenylamino-1-oxa-4-azaindene] | 0.01 to 100 |
| [2H]C([2H])(Nc1cc(Cl)nc2c(Br)c(C[C@@H](N)COC(F)(F)F)oc12)c1cccs1 [Compound 246, 2-[(R)-2-amino-3-trifluoromethoxypropyl]-3-bromo-5-chloro-7-{[(2-thienyl)(^2H2)methyl]amino}-1-oxa-4-azaindene] | 101 to 500 |
| C#Cc1c(C[C@@H](N)CO)oc2c(NCc3cccs3)cc(Cl)nc12 [Compound 248, (R)-2-amino-3-(5-chloro-3-ethynyl-7-thenylamino-1-oxa-4-aza-2-indenyl)-1-propanol] | 0.01 to 100 |
| [2H]C([2H])([2H])OC[C@H](N)Cc1oc2c(NC([2H])([2H])c3cccs3)cc(Cl)nc2c1Br [Compound 249, 2-[(R)-2-amino-3-(^2H3)methoxypropyl]-3-bromo-5-chloro-7-{[(2-thienyl)(^2H2)methyl]amino}-1-oxa-4-azaindene] | 0.01 to 100 |
| [2H]C([2H])([2H])OC[C@H](N)Cc1oc2c(NC([2H])([2H])c3cccs3)cc(Cl)nc2c1C#C [Compound 250, 2-[(R)-2-amino-3-(^2H3)methoxypropyl]-5-chloro-3-ethynyl-7-{[(2-thienyl)(^2H2)methyl]amino}-1-oxa-4-azaindene] | 0.01 to 100 |
| [2H]C([2H])([2H])OC[C@H](N)Cc1oc2c(NCc3cccs3)cc(Cl)nc2c1Cl [Compound 264, 2-[(R)-2-amino-3-(^2H3)methoxypropyl]-3,5-dichloro-7-thenylamino-1-oxa-4-azaindene] | 0.01 to 100 |
| [2H]C([2H])([2H])OC[C@H](N)Cc1oc2c(NCc3ccco3)cc(Cl)nc2c1Cl [Compound 265, 2-[(R)-2-amino-3-(^2H3)methoxypropyl]-3,5-dichloro-7-(furfurylamino)-1-oxa-4-azaindene] | 0.01 to 100 |
| C#Cc1c(C[C@@H](N)CCOC)oc2c(NCc3cccs3)cc(Cl)nc12 [Compound 266, 2-[(S)-2-amino-4-methoxybutyl]-5-chloro-3-ethynyl-7-thenylamino-1-oxa-4-azaindene] | 0.01 to 100 |
| [2H]C([2H])([2H])OCC[C@H](N)Cc1oc2c(NCc3cccs3)cc(Cl)nc2c1Br [Compound 267, 2-[(S)-2-amino-4-(^2H3)methoxybutyl]-3-bromo-5-chloro-7-thenylamino-1-oxa-4-azaindene] | 101 to 500 |
| [2H][C@@](C)(N)Cc1oc2c(NCc3cccs3)cc(Cl)nc2c1C#C [Compound 268, 2-[(S)-2-amino(2-^2H)propyl]-5-chloro-3-ethynyl-7-thenylamino-1-oxa-4-azaindene] | 0.01 to 100 |
| [2H]C([2H])([2H])C(N)Cc1oc2c(NCc3cccs3)cc(Cl)nc2c1C#C (centres unmarked) [Compound 269, 2-[2-amino(3,3,3-^2H3)propyl]-5-chloro-3-ethynyl-7-thenylamino-1-oxa-4-azaindene] | 0.01 to 100 |

— patent US20260001889A1, “COMPOSITIONS USEFUL FOR MODULATING SPLICING” (Skyhawk Therapeutics, Inc., priority 2022, published 2026)
